Results from patent US20240239743A1, “1-(4-{1-[(E)-4-CYCLOHEXYL-3-TRIFLUOROMETHYLBENZYLOXYIMINO]-ETHYL}-2-ETHYL-BENZYL)-AZETIDINE-3-CARBOXYLIC ACID, (E)-BUT-2-ENEDIOIC ACID” (Novartis AG, priority 2008, published 2024).

Legend:
[1] = pressure of 10 tons for 5 minutes; Raman microscope
Procedure: Crystalline form A was also tested for pressure stability by exposing a few milligrams of this form to a pressure of 10 tons for 5 minutes.

[2] = Dynamic Vapour Sorption (hygroscopicity); type: physicochemical; details: 50-0-95-50% r.h.
From the text: Dynamic Vapour Sorption measurements were taken using a DVS-1 water vapour sorption analyzer (Surface Measurement Systems Ltd.) or a Projekt Messtechnik SPS11-100n. The sample was allowed to equilibrate at 50% r.h. before starting a pre-defined humidity program (50-0-95-50% r.h., scanning with 5% Δr.h. hour-1 and with several isohumid equilibration periods).

[3] = Stability of hemifumarate salt solution relative to free base solution at elevated temperature; type: physicochemical; details: solution/suspension in ethanol; 40° C., 50° C. and 60° C. for one week; compared with free base
Procedure: 30 g of compound I was prepared using the method of Example 3 of WO2004/103306. The hemifumarate salt of the invention was then prepared by reacting a suspension of 30.0 g of compound I and […] fumaric acid (5% conc.) in 200 g ethanol absolute (>99.9%) at room temperature (25° C.).
The stability of the hemifumarate salt solution relative to the free base solution was then tested by subjecting both solutions to conditions of elevated temperature (40° C., 50° C. and 60° C.) for a period of one week.

Row | Structure (SMILES) | pressure stability (change in crystal form) [1] | hygroscopicity [2] | stability of the hemifumarate salt solution relative to the free base solution [3]
1 | CCc1cc(/C(C)=N/OCc2ccc(C3CCCCC3)c(C(F)(F)F)c2)ccc1CN1CC(C(=O)O)C1.CCc1cc(/C(C)=N/OCc2ccc(C3CCCCC3)c(C(F)(F)F)c2)ccc1CN1CC(C(=O)O)C1.O=C(O)/C=C/C(=O)O [Crystalline Form A] | no change in form was observed | low hygroscopicity | –
2 | CCc1cc(/C(C)=N/OCc2ccc(C3CCCCC3)c(C(F)(F)F)c2)ccc1CN1CC(C(=O)O)C1.O=C(O)/C=C/C(=O)O [hemifumarate salt, 1-(4-{1-[(E)-4-Cyclohexyl-3-trifluoromethyl-benzyloxyimino]-ethyl}-2-ethyl-benzyl)-azetidine-3-carboxylic acid, (E)-but-2-enedioic acid] | – | – | superior stability
